Reference: patent US11504349B2, “Composition for preventing or treating TNF-related diseases, containing novel derivative as active ingredient, and method for inhibiting TNF activity by using same” (ILAB, priority 2017, dated 2022)

How the values were obtained:
DBA/1 mice [1] = assay: Therapeutic effect on rheumatoid arthritis, CIA mouse model; assay type: in vivo
Description: The CIA mouse model is a model in which arthritis is induced by collagen in DBA/1 mice. Thus, a 1:1 mixture of collagen type 2 and CFA was intradermally (ID) injected into the base of the tail of 8-week old DBA/1 mice. Two weeks after the primary immunization, a 1:1 mixture of collagen type 2 and IFA was intradermally (ID) injected into the base of the tail. After the second immunization, the pathology was measured twice a week, and the groups were divided equally so that the mean of the pathology of each group was 4 points. From Day 35 after the primary immunization, etanercept (4.5 mpk), adalimumab (1.2 mpk), the compound of Example 61 (25 mpk, 50 mpk, or 100 mpk) were orally administered three times a week, and the pathology was measured and recorded. The pathology score was measured as 1=inflammation and swelling of one toe, 2=inflammation of one or more toes or weak swelling of the whole sole of the foot, 3=severe swelling of the whole sole of the foot and swelling of ankle, 4=very severe inflammation and swelling of the whole foot or the bending and stiffness of foot (N=7 to 9/group, *P<0.01, **P<0.005, ***P<0.001).

TNF = TNF (Homo sapiens, UniProt P01375); assay: SPR (Biacore T200) direct binding to immobilized TNF; conditions: TNF immobilized on CM5 chip, read-out: binding affinity (KD)
Chain of TNF (P01375 77-233 limits assumed): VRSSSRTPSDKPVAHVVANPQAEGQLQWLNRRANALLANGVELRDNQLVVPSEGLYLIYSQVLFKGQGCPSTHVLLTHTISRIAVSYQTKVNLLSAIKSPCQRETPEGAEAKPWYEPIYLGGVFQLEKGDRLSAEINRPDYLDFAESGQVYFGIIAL
Description: The binding kinetics of TNF and 4-benzopyranone derivative compounds was measured by Surface Plasmon Resonance (SPR) method. First, based on the results of pH scouting (10 mM acetate buffer, pH 4.0, 4.5, 5.0, and 5.5), the appropriate buffer pH was determined, and then the recombinant TNF was immobilized on the CM5 chip (4000-5000 RU). In order to correct an effect of DMSO, a solvent correction standard was then prepared, and DMSO was added to the HBS-EP+ buffer (GE) in an amount of 5%. Then, the 4-benzopyranone derivative compounds were prepared depending on concentration, flowed into the chip (20 μl/min, 500 s), and dissolved (500 s), and the results of sensorgram were analyzed by a dedicated program to determine the affinity value (KD). At this time, the running buffer was HBS-EP+ buffer (GE), the regeneration buffer was 10 mM glycine (pH 2.5), and Biacore T200 (GE) was used as an analyzer.

TNF-overexpressing mice = assay: Therapeutic effect on rheumatoid arthritis, TNF-overexpressing mouse model; assay type: in vivo
Description: First, until the mean level of arthritis of TNF-overexpres sing mice reached 8, the mice were raised. As such, etanercept (4.5 mpk), adalimumab (1.2 mpk), the compound of Example 61 (25 mpk, 50 mpk, or 100 mpk) were orally administered to the mice with rheumatoid arthritis from Week 15 to Week 23, three times a week, and the pathology was measured and recorded from Week 7 to Week 23 (N=5 to 6/group, *P<0.01, **P<0.005, ***P<0.001).

etanercept = etanercept (Homo sapiens, UniProt P20333); assay: SPR binding to etanercept; conditions: FIG. 2c
Chain of etanercept (P20333 with tags, fused parts or gaps limits assumed): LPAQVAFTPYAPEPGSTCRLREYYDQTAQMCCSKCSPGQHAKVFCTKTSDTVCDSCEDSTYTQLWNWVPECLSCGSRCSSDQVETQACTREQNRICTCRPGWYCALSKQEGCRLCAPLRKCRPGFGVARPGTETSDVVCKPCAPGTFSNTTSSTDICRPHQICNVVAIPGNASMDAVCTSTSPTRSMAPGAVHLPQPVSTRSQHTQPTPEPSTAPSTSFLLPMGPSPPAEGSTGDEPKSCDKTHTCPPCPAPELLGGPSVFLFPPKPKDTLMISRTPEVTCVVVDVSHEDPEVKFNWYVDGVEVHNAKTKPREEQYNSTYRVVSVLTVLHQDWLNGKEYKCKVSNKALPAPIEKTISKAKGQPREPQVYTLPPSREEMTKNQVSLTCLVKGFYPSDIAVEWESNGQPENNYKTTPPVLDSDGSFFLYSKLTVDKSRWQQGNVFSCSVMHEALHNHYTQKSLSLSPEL

DBA/1 mice [2] = assay: CIA mouse model, alone and in combination with methotrexate; assay type: in vivo; conditions: Example 61 10 mpk PO once a day, MTX 5 mpk three times a week, to Day 73
Source text: A 1:1 mixture of collagen type 2 and CFA was intradermally (ID) injected into the base of the tail of DBA/1 mice. Two weeks after the primary immunization, a 1:1 mixture of bovine collagen type 2 and IFA (incomplete Freund's adjuvant) was intradermally (ID) injected into the base of the tail to prepare the rheumatoid arthritis animal model. The thus prepared mice were divided into […], i.e., a positive control group (MTX 5 mpk treated group: 10 mice), a group treated with the compound of Example 61 alone (10 mpk treated group: 9 mice), a group treated with MTX and the compound of Example 61 (each 5 mpk and 10 mpk; 9 mice), and a group treated with vehicle (a group treated with 0.05% CMC diluted in distilled water; 15 mice). […]
The severity of arthritis was determined by ascertaining the mean score of arthritis according to the following standard score in the forefoot and hindfoot twice a week from Day 0 to Day 73 after the primary immunization: 0=normal foot, 1=inflammation and swelling of one toe, 2=inflammation and swelling of more than one toe, but not all of the toes have inflammation and swelling, or weak swelling of all toes, 3=inflammation and swelling of all toes, and 4=severe inflammation and swelling or occlusion of foot.

BALB/c mice = assay: In vivo TNF neutralization assay (TNF/D-galactosamine-induced lethality); set-up: species or system mouse; conditions: 3.3, 16.5 mpk PO 30 minutes before challenge; 24 hours; concentration-dependent
Description: Treatment with TNF and a sensitizer D-galactosamine in an in vivo mouse model leads to death from acute liver failure. Thus, the compound of Example 61 (3.3 mpk or 16.5 mpk) was orally administered to BALB/c mice, and after 30 minutes, the mice were IP treated with the mixture of D-galactosamine (21 mg/mouse) and TNF (0.3 μg/mouse). Survival rates were observed and recorded every 3 hours up to 24 hours, and statistically analyzed by log-rank (Mantel-Cox) test using Prism 6 (GraphPad) (N=13/group, **P<0.005, ***P<0.001). mpk, mg/kg). This confirmed that the in vivo neutralization activity of the compounds binding to TNF in a TNF-induced lethality model.

NF-kB p65 = assay: Western blot: TNF-induced NF-kB p65 nuclear migration in LM cells; assay type: cell-based, mouse; conditions: TNF 50 ng/ml, 1 hour, compound at about 25 μM
Description: First, LM cells was treated with TNF alone (50 ng/ml) or a mixture of TNF and the compound of Example 61 (0, 10, 25, 50 μM) for 1 hour, and then the cells were washed and prepared. After the cytoplasmic fraction and nuclear fraction were separated/obtained using NE-PER nuclear and cytoplasmic extraction reagents (Thermo Scientific, cat #78833), NF-kB p65 protein was detected by SDS-PAGE and Western Blot. Anti-NF-κB p65 rabbit monoclonal antibody (Cell Signaling Technology, cat #D14E12) was used as a primary antibody, and goat anti-rabbit HRP-conjugated antibody (Invitrogen, cat #656120) was used as a secondary antibody. As a Western Blot control protein (housekeeping protein), GAPDH was used in the cytoplasmic fraction, and Lamin B1 was used in the nuclear fraction. Anti-GAPDH mouse monoclonal antibody (GenScript, cat #A01622) was used as a primary antibody of GAPDH, and goat anti-mouse HRP-conjugated antibody (BETHYLlaboratories, cat #A90-116P) was used as a secondary antibody. Anti-Lamin-B1 rabbit monoclonal antibody (Cell Signaling Technology, cat #12586S) was used as a primary antibody of Lamin B1, and anti-rabbit HRP-conjugated antibody (Invitrogen, cat #656120) was used as a secondary antibody.

O=C(O)c1c(-c2cc(F)ccc2F)oc2cc(Cl)ccc2c1=O [Example 61, 2-(2,5-difluorophenyl)-3-carboxy-7-chloro-(4H)-4-benzopyranone]
therapeutic effect on rheumatoid arthritis (pathology score) (DBA/1 mice [1]; 25, 50 and 100 mpk PO three times a week, vs negative control): remarkable therapeutic effect
effect in comparison with etanercept (DBA/1 mice [1]; 25 mpk): non-inferior effect
efficacy in comparison with tofacitinib (25 mpk) (DBA/1 mice [1]; 25 mpk): considerably similar efficacy
Kd (TNF): 1440 nM
therapeutic effect on rheumatoid arthritis (pathology score) (TNF-overexpressing mice; 25, 50 and 100 mpk PO, three times a week, Week 15 to 23, vs negative control): remarkable therapeutic effect
effect in comparison with adalimumab and etanercept (TNF-overexpressing mice; 50 and 100 mpk PO, adalimumab 1.2 mpk, etanercept 4.5 mpk): non-inferior effect
binding to etanercept (etanercept): did not bind to etanercept
therapeutic effect on arthritis (mean arthritis score) (DBA/1 mice [2]): therapeutic effect on arthritis was shown
death of mice due to acute hepatotoxicity induced by D-galactosamine and TNF (BALB/c mice): inhibited
migration of NF-kB from the cytoplasm to the nucleus activated by TNF (NF-kB p65): almost completely inhibited
